How the values were obtained:
H2 receptors = H2 receptors (Homo sapiens, UniProt P25021); conditions: compared to azelastine and olapatadine; cited from earlier work
H1 receptors = H1 receptors (Homo sapiens, UniProt P35367); conditions: compared to azelastine and olapatadine; cited from earlier work
[1] = Pharmacokinetics after intranasal administration in rabbits; conditions: for Tmax: male, New Zealand white, rabbit, plasma, inhaled or intranasal
Procedure: The pharmacokinetic profiles of the alcaftadine test formulations 4A, 4B, and 4C as well as an olapatdine nasal formulation were each determined on 6 male New Zealand white rabbits.
(§1) The study was carried out on total 24 male New Zealand white rabbits, which were segregated into four groups (G1 to G4, 6 rabbits/group). Mild anaesthesia was induced in all rabbits by inhalation of 2% isoflurane. Three groups (G1-G3) of anaesthetized rabbits were intranasally administered 250 μL of alcaftadine once-daily using the formulations of Examples 10A, 10B, and 10C. A comparator, 250 μL of olopatadine at a concentration of 0.6% w/v, was intranasally administered once-daily to a fourth group G4 of anaesthetized rabbits.
Sampling details for the test and reference formulations: Approximately 0.5 mL of blood sample from each rabbit was withdrawn via marginal ear vein into pre-labelled Eppendorf tubes containing 10% EDTA as an anticoagulant. Blood samples were withdrawn at 0 min, 5 min, 10 min, 15 min, 30 min, 60 min, 120 min, 240 min, 480 min and 1440 min after administration of test and reference formulations.
Procedure for sample preparation: Collected blood samples were mixed gently and kept on crushed ice. Plasma samples were separated after centrifugation at 3500 rpm for 10 min at 4° C. Plasma separation was carried out within 30 min of sample collection and stored at −70±10° C. The animals were euthanized by intravenous administration of sodium thiopental injection overdose and nasal epithelium was collected. Half of the tissues of nasal epithelium were homogenized using phosphate buffered solution (20% homogenation) for quantification of alcaftadine and olopatidine. The remaining half of the tissues were stored in 10% neutral buffered formalin for detailed gross histopathological examination such as necrosis, inflammation or any changes during necropsy.
Rabbit plasma and nasal epithelial tissue concentrations of alcaftadine or olopatidine were determined using a fit-for-purpose LC-MS/MS method with LLOQ of 0.500 ng/mL or 0.250 ng/mL, respectively. The pharmacokinetic parameters were evaluated using Phoenix WinNonlin® Ent-Version 8.0 by non-compartmental analysis.

[2] = Nasal irritation and histopathology of nasal epithelium in rabbits; type: in vivo, male New Zealand white rabbits; conditions: intranasal, doses of 0.312 mg, 0.625 mg and 1.25 mg, all three groups
Procedure: as §1
The animals were euthanized by intravenous administration of sodium thiopental injection overdose and nasal epithelium was collected. […] The remaining half of the tissues were stored in 10% neutral buffered formalin for detailed gross histopathological examination such as necrosis, inflammation or any changes during necropsy.

[3] = single administration, doses of 0.625 to 1.25 mg

Chain of H2 receptors (P25021 whole entry): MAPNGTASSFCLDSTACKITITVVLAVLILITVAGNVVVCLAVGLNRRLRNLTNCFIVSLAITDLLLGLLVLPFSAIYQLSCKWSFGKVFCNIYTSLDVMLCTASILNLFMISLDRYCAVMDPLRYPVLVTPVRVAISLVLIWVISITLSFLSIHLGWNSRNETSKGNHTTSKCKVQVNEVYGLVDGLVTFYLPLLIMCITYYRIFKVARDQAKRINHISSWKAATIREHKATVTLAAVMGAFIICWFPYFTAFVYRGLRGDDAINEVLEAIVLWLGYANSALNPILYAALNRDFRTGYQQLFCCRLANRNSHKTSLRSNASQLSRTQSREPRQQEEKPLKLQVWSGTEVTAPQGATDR
Chain of H1 receptors (P35367 whole entry): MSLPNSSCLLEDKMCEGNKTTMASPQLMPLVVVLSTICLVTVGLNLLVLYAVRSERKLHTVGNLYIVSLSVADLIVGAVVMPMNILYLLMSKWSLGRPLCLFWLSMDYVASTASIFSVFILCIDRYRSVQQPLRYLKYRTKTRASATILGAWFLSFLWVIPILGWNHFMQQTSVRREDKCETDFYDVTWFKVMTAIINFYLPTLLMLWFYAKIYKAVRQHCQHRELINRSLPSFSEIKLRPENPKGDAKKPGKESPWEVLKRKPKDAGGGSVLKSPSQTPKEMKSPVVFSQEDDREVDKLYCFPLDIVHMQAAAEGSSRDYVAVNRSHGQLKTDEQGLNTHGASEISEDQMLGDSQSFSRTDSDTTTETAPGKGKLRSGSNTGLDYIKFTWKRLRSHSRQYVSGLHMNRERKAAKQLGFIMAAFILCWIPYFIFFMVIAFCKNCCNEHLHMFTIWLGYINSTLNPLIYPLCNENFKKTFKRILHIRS

In the case of CN1CCC(=C2c3ccccc3CCn3c(C=O)cnc32)CC1 [Alcaftadine, 6,11-dihydro-11-(1-methyl-4-piperidinylidene)-5H-imidazo[2,1-b][3]benzazepine-3-carboxaldehyde], the “binding affinity to H2 receptors” value (H2 receptors) is listed as “higher binding affinity”, the “binding affinity to H1 receptors” value (H1 receptors) is listed as “higher binding affinity” and the “plasma concentration / systemic exposure” value ([1]; intranasal, rabbits) is listed as “dose proportional with overall low systemic exposure”. The Tmax ([1]; 0.312 mg) was 4.8 min, the Tmax ([1]; 0.625 mg) was 4.8 min and the Tmax ([1]; 1.25 mg) was 4.8 min. The “area under the curve (AUC0-24h)” value [1, 3] was “dose proportional”, the “peak plasma concentrations (Cmax)” value [1, 3] was “dose proportional” and the “signs or symptoms of inflammation or irritation” value [2] was “no signs or symptoms of inflammation or irritation were observed”.

Reference: patent US20230218630A1, “COMBINATION OF ALCAFTADINE AND A CORTICOSTEROID” (priority 2020, published 2023)
